According to the OPERA property sets (Mansouri et al. 2018):

For `OC1(Cn2cncn2)CCCC1Cc1ccc(-c2ccccc2)cc1` (centres undefined), the logP was 3.92. `CC1CC2=NOS3=C2C(=NO3)C1` showed a logP of 1.5. Work on `COc1ccc2cc(CC(=O)OCC(=O)N(C)C)ccc2c1` yielded a logP of 2.23. `C=CCOc1ccc2c(c1)[n+]([O-])nc(N)[n+]2[O-]` showed a logP of 0.76. In the case of `CCCN(CCCCC(NC(C)=O)C(=O)NCc1ccccc1)C(=O)N(C)N=O` (centres undefined), the logP was 1.73. Work on `CCC(C)NC(=O)COC(=O)Cc1ccc2cc(OC)ccc2c1` (centres undefined) yielded a logP of 3.31. With `CC(=O)c1ccc(OC(=O)N(C)C)cc1` the logP was 1.27. For `CN(C)C(=O)Oc1cccc(N(C)C)c1`, the logP was 1.93. For `C=CCN(N=O)C(=O)NCCCCC(NC(C)=O)C(=O)NCc1ccccc1` (centres undefined), the logP was 1.62. With `CCOC(=O)COc1ccc(-n2sc3ccccc3c2=O)cc1` the logP was 2.96. `c1ccc(CC2CC3=NOS4=C3C(=NO4)C2)cc1` showed a logP of 2.8. Compound `COc1cccc(OC)c1C(=O)Nc1nnc(-c2ccccc2)s1` has a logP of 3.5. Compound `CCOC(=O)C(C)Oc1ccc(-n2sc3ccccc3c2=O)cc1` (centres undefined) has a logP of 3.89. `CCCN(CCCl)c1c([N+](=O)[O-])cc(C(F)(F)F)cc1[N+](=O)[O-]` showed a logP of 4.63. `CC12CCC(CC1=O)C2(C)C` (centres undefined) gave a logP of 2.38. `CCCc1ccc(OC(=O)N(C)C)cc1` gave a logP of 3.15. Work on `ClC1=C(Cl)C2C(C1Cl)C1(Cl)C(Cl)C(Cl)C2(Cl)C1(Cl)Cl` (centres undefined) yielded a logP of 6.08. `COP(=O)(CC(C)=O)OC` gave a logP of -0.86. With `O=C1NC(=O)C(c2ccccc2)(c2ccccc2)N1S(=O)(=O)c1ccc(Cl)cc1` the logP was 4.48. With `CC(=O)NC(CCCCNC(=O)NCCCl)C(=O)NCc1ccccc1` (centres undefined) the logP was 0.61. `COc1ccc2cc(CC(=O)OCC(=O)N3CCCC3)ccc2c1` showed a logP of 2.71. In the case of `COc1cccc(OC)c1C(=O)Nc1nnc(-c2ccc(F)cc2)s1`, the logP was 3.5. `OC1(Cn2cncn2)CCCC1Cc1ccc(Cl)cc1` (centres undefined) gave a logP of 3.11. `Cn1c(N)c(N)c(=O)[nH]c1=O` showed a logP of -1.4. `Nc1n[n+]([O-])c2ccc(Cl)cc2[n+]1[O-]` showed a logP of 0.41. `COc1ccc2cc(CC(=O)OCC(=O)NC(C)(C)C)ccc2c1` gave a logP of 3.6. With `CCCCCCCCCCn1c(N)c(N)c(=O)[nH]c1=O` the logP was 3.04. `CC(=O)NC(CCCNC(=O)N(C)N=O)C(=O)NCc1ccccc1` (centres undefined) showed a logP of 0.98. In the case of `C#CCON=CNc1cc(F)c(OCC#C)c(OCC#C)c1`, the logP was 1.8. With `CCOc1ccc(NC(=O)OCCF)cc1OCC` the logP was 2.27. Work on `C#CCOc1cc(NC=NOCC)cc(Cl)c1OCC#C` yielded a logP of 2.6. For `COc1ccc2cc(CC(=O)OCC(=O)N(C)CCO)ccc2c1`, the logP was 1.58. For `CCCCOc1ccccc1NC(=O)OC1CCCCC1CN(C)C` (centres undefined), the logP was 5.01. With `CNC(=O)COC(=O)Cc1ccc2cc(OC)ccc2c1` the logP was 2.19. For `COc1ccc2c(c1OC)-c1ccc(OC)c(=O)cc1C(NC(C)=O)CC2` (centres undefined), the logP was 1.02. `C=CCN1CCCN(CC=C)C1=S` gave a logP of 2.08. `CC1CCC2C(C)COC3OC4(C)CCC1C32OO4` (centres undefined) gave a logP of 3.16. With `C#CCOc1ccc(NC=NOC)cc1OCC#C` the logP was 1.6. With `CCC1CCC(Cc2ccc(Cl)cc2)C1(O)Cn1cncn1` (centres undefined) the logP was 3.71.
